Reference: patent US12275729B2 (Merck Sharp & Dohme LLC, priority 2017, dated 2025)
pIC50: −log10 of the molar value.

Assays:
[1] = target: T1, IDO1 (Homo sapiens, UniProt P14902); test: IDO1 Human Whole Blood Assay; assay type: cell-based; parameters: Human whole blood was drawn in sodium heparin coated tubes from healthy internal donors; from tissue; host or cells: human whole blood from healthy donors, stimulated with LPS and IFNγ; details: LPS and IFNγ stimulated
[2] = target: T1, IDO1; test: IDO1 Cellular Assay in HeLa Cells Stimulated with IFNγ; assay type: cell-based; details: read-out: Hela IC50

T1 sequence (P14902 whole entry): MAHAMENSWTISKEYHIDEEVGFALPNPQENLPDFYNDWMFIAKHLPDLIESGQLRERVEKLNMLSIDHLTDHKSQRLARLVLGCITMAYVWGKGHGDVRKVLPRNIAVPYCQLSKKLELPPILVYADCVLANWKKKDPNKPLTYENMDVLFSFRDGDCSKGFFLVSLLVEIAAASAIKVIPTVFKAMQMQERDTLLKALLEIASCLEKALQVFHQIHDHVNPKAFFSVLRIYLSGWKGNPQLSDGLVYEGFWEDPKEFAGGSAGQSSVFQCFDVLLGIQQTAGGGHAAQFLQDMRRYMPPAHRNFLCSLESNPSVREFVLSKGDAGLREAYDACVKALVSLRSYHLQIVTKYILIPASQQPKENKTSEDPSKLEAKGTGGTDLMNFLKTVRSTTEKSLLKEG

| pIC50 [1] | pIC50 [2] | pIC50 ([2]; about 48 hours) | pIC50 ([2]; value in running text) | SMILES |
| --- | --- | --- | --- | --- |
| 5.31 | 8.96 |  |  | COC[C@H](C)OC(=O)N1CCCc2nc(C(C)NC(=O)c3ccc(Cl)cc3)ccc21 (stereo partly drawn) [Example 330, (S)-1-methoxypropan-2-yl 6-(1-(4-chlorobenzamido)ethyl)-3,4-dihydro-1,5-naphthyridine-1(2H)-carboxylate] |
| 6.47 | 6.81 |  |  | Cc1ncnc(N2CCCc3nc(C(C)NC(=O)c4ccc(Cl)cc4)ccc32)c1C (centres unmarked) [Example 347, 4-chloro-N-(1-(5-(5,6-dimethylpyrimidin-4-yl)-5,6,7,8-tetrahydro-1,5-naphthyridin-2-yl)ethyl)benzamide] |
| 6.70 | 8.30 |  |  | CC(C(=O)Nc1ccc(F)cc1)c1ccc2c(n1)CCCN2c1ccnc(C(F)(F)F)n1 (centres unmarked) [Example 364, N-(4-fluorophenyl)-2-(5-(2-(trifluoromethyl)pyrimidin-4-yl)-5,6,7,8-tetrahydro-1,5-naphthyridin-2-yl)propanamide] |
| 6.35 |  | 8.24 |  | CC(NC(=O)c1ccc(F)cc1)c1ccc2c(c1)CCCN2C(CO)c1cccc(Cl)c1 (single isomer, unassigned) [Example 93] |
| 7.30 |  | 6.33 |  | CC(NC(=O)c1ccc(F)cc1)c1ccc2c(n1)CCCN2C(=O)c1cc(C(F)(F)F)ccn1 (centres unmarked) [Example 278, 4-fluoro-N-(1-(5-(4-(trifluoromethyl)picolinoyl)-5,6,7,8-tetrahydro-1,5-naphthyridin-2-yl)ethyl)benzamide] |
| 7.00 |  | 8.32 |  | C[C@H](C(=O)Nc1ccc(F)cc1)c1ccc2c(c1)CCCN2C(=O)C1CCOCC1 [Example 81, (2S)-N-(4-fluorophenyl)-2-[1-(oxane-4-carbonyl)-1,2,3,4-tetrahydroquinolin-6-yl]propanamide] |
| 7.49 | 8.76 |  |  | CC(NC(=O)c1ccc(Cl)cc1)c1ccc2c(n1)CCCN2c1ccnc(C(F)(F)F)n1 (centres unmarked) [Example 345, 4-chloro-N-(1-(5-(2-(trifluoromethyl)pyrimidin-4-yl)-5,6,7,8-tetrahydro-1,5-naphthyridin-2-yl)ethyl)benzamide] |
| 5.69 |  | 8.35 |  | CC(C)(C(=O)Nc1ccc(Cl)cc1)c1ccc2c(c1)CCCN2C(=O)c1cccc(Cl)c1 [Example 187, 2-[1-(3-chlorobenzene-1-carbonyl)-1,2,3,4-tetrahydroquinolin-6-yl]-N-(4-chlorophenyl)-2-methylpropanamide] |
| 7.54 |  | 7.92 |  | CC(C(=O)Nc1ccc(F)cc1)c1ccc2c(n1)CCCN2C(=O)[C@H]1CCCO1 (stereo partly drawn) [Example 137, N-(4-fluorophenyl)-2-(5-((R)-tetrahydrofuran-2-carbonyl)-5,6,7,8-tetrahydro-1,5-naphthyridin-2-yl)propanamide] |
| 6.54 |  | 8.08 |  | CC(NC(=O)c1ccc(Cl)cc1)c1ccc2c(n1)CCCN2C(=O)C1CC1 (single isomer, unassigned) [Example 125, 4-chloro-N-{1-[5-(cyclopropanecarbonyl)-5,6,7,8-tetrahydro-1,5-naphthyridin-2-yl]ethyl}benzamide] |
| 5.77 | 7.16 |  |  | Cc1cc(C)n(COC(=O)N2CCCc3nc(C(C)NC(=O)c4ccc(F)cc4)ccc32)n1 (centres unmarked) [Example 320, (3,5-dimethyl-1H-pyrazol-1-yl)methyl 6-(1-(4-fluorobenzamido)ethyl)-3,4-dihydro-1,5-naphthyridine-1(2H)-carboxylate] |
| 6.97 |  | 8.67 |  | Cc1ccc(C(=O)NC2(c3ccc4c(n3)CCCN4c3ccnc(C)n3)CC2)cc1 [Example 303, 4-methyl-N-(1-(5-(2-methylpyrimidin-4-yl)-5,6,7,8-tetrahydro-1,5-naphthyridin-2-yl)cyclopropyl)benzamide] |
| 7.68 |  | 8.77 |  | Cc1nccc(N2CCCc3nc(C4(NC(=O)c5ccc(Br)cc5)CC4)ccc32)n1 [Example 301, 4-bromo-N-(1-(5-(2-methylpyrimidin-4-yl)-5,6,7,8-tetrahydro-1,5-naphthyridin-2-yl)cyclopropyl)benzamide] |
| 6.84 | 7.35 |  |  | O=C(N[C@H](c1ccc2c(n1)CCCN2C(=O)C1CC1)C(F)(F)F)c1ccc(F)cc1 [Example 424, (R)—N-(1-(5-(cyclopropanecarbonyl)-5,6,7,8-tetrahydro-1,5-naphthyridin-2-yl)-2,2,2-trifluoroethyl)-4-fluorobenzamide] |
| 6.01 | 9.16 |  |  | Cc1nccc(N2CCCc3nc(C(C)C(=O)Nc4ccc(Cl)cc4)ccc32)n1 (centres unmarked) [Example 362, N-(4-chlorophenyl)-2-(5-(2-methylpyrimidin-4-yl)-5,6,7,8-tetrahydro-1,5-naphthyridin-2-yl)propanamide] |
| 7.16 | 8.96 |  | 9.00 | Cc1nccc(N2CCCc3nc(C4(C(=O)Nc5ccc(F)cc5)CC(F)C4)ccc32)n1 (centres unmarked) [Example 419, 2-(3-fluoro-1-((4-fluorophenyl)carbamoyl)cyclobutyl)-5-(2-methylpyrimidin-4-yl)-5,6,7,8-tetrahydro-1,5-naphthyridin-1-ium 2,2,2-trifluoroacetate] |

| pIC50 [1] | pIC50 [2] | pIC50 ([2]; about 48 hours) | pIC50 ([2]; value in running text) | SMILES |
| --- | --- | --- | --- | --- |
| 6.43 |  | 8.31 |  | C[C@H](C(=O)Nc1ccc(F)cc1)c1ccc2c(c1)CCCN2C(=O)c1cccc(Cl)c1 (single isomer, unassigned) [Example 52] |
| 7.00 |  | 8.24 |  | Cc1nccc(N2CCCc3nc(C(C)(C)C(=O)Nc4ccc(Cl)c(F)c4)ccc32)n1 [Example 391, N-(4-chloro-3-fluorophenyl)-2-methyl-2-(5-(2-methylpyrimidin-4-yl)-5,6,7,8-tetrahydro-1,5-naphthyridin-2-yl)propanamide] |
| 7.74 | 8.54 |  |  | COC[C@@H](C)OC(=O)N1CCCc2nc(C(C)NC(=O)c3ccc(F)cc3)ccc21 (stereo partly drawn) [Example 315, (R)-1-methoxypropan-2-yl 6-(1-(4-fluorobenzamido)ethyl)-3,4-dihydro-1,5-naphthyridine-1(2H)-carboxylate] |
| 6.41 |  | 8.20 |  | COC(=O)N1CCCc2nc(C(C)NC(=O)c3ccc(Cl)cc3)ccc21 (centres unmarked) [Example 213, methyl 6-{1-[(4-chlorobenzene-1-carbonyl)amino]ethyl}-3,4-dihydro-1,5-naphthyridine-1(2H)-carboxylate] |
| 7.54 | 6.63 |  |  | O=C(N[C@@H](c1ccc2c(n1)CCCN2C(=O)C1CC1)C(F)(F)F)c1ccc(F)cc1 [Example 425, (S)—N-(1-(5-(cyclopropanecarbonyl)-5,6,7,8-tetrahydro-1,5-naphthyridin-2-yl)-2,2,2-trifluoroethyl)-4-fluorobenzamide] |
| 8.10 | 8.69 |  |  | CCC(COC)OC(=O)N1CCCc2nc(C(C)NC(=O)c3ccc(F)cc3)ccc21 (centres unmarked) [Example 331, 1-methoxybutan-2-yl 6-(1-(4-fluorobenzamido)ethyl)-3,4-dihydro-1,5-naphthyridine-1(2H)-carboxylate] |
| 7.80 | 7.75 |  |  | CC(NC(=O)c1ccc(F)cc1)c1ccc2c(n1)CCCN2c1ccn2nccc2n1 (centres unmarked) [Example 368, 4-fluoro-N-(1-(5-(pyrazolo[1,5-a]pyrimidin-5-yl)-5,6,7,8-tetrahydro-1,5-naphthyridin-2-yl)ethyl)benzamide] |
| 7.89 |  | 8.76 |  | Cc1ccnc(C(=O)N2CCCc3nc(C4(C(=O)Nc5ccc(Cl)cc5)COC4)ccc32)n1 [Example 399, N-(4-chlorophenyl)-3-(5-(4-methylpyrimidine-2-carbonyl)-5,6,7,8-tetrahydro-1,5-naphthyridin-2-yl)oxetane-3-carboxamide] |
| 7.77 | 8.42 |  |  | COCCOC(=O)N1CCCc2nc(C3(NC(=O)c4ccc(Cl)cc4)CCC3)ccc21 [Example 413, 2-methoxyethyl 6-(1-(4-chlorobenzamido)cyclobutyl)-3,4-dihydro-1,5-naphthyridine-1(2H)-carboxylate] |
| 6.79 |  | 8.82 |  | Cc1cncc(N2CCCc3nc(C4(NC(=O)c5ccc(F)cc5)CC4)ccc32)n1 [Example 296, 4-fluoro-N-(1-(5-(6-methylpyrazin-2-yl)-5,6,7,8-tetrahydro-1,5-naphthyridin-2-yl)cyclopropyl)benzamide] |
| 7.02 |  | 8.70 |  | CC(C(=O)Nc1ccc(Cl)cc1)c1ccc2c(c1)CCCN2C(=O)c1cccc(Cl)c1 (centres unmarked) [Example 51, 2-[1-(3-chlorobenzene-1-carbonyl)-1,2,3,4-tetrahydroquinolin-6-yl]-N-(4-chlorophenyl)propanamide] |
| 7.37 |  | 8.60 |  | CC(C(=O)Nc1ccc(F)cc1)c1ccc2c(c1)CCCN2C(=O)c1cccc(Cl)c1 (racemic) [Example 50, 2-[1-(3-chlorobenzene-1-carbonyl)-1,2,3,4-tetrahydroquinolin-6-yl]-N-(4-fluorophenyl)propanamide] |
| 7.72 |  | 8.62 |  | C[C@@H](C(=O)Nc1ccc(F)cn1)c1ccc2c(c1)CCCN2C(=O)c1cccc(Cl)c1 (single isomer, unassigned) [Example 55] |
| 7.39 |  | 8.60 |  | CC(C(=O)Nc1ccc(Cl)cc1)c1ccc2c(c1)CC(F)CN2C(=O)c1cccc(Cl)c1 (single isomer, unassigned) [Example 259, 2-(1-(3-chlorobenzoyl)-3-fluoro-1,2,3,4-tetrahydroquinolin-6-yl)-N-(4-chlorophenyl)propanamide] |
| 6.78 | 7.89 |  |  | Cc1ncc(N2CCCc3nc(C(C)NC(=O)c4ccc(Cl)cc4)ccc32)s1 (centres unmarked) [Example 356, 4-chloro-N-(1-(5-(2-methylthiazol-5-yl)-5,6,7,8-tetrahydro-1,5-naphthyridin-2-yl)ethyl)benzamide] |
| 7.59 |  | 8.91 |  | Cc1nccc(N2CCCc3nc(C4(C(=O)Nc5ccc(F)cc5)COC4)ccc32)n1 [Example 395, N-(4-fluorophenyl)-3-(5-(2-methylpyrimidin-4-yl)-5,6,7,8-tetrahydro-1,5-naphthyridin-2-yl)oxetane-3-carboxamide] |
